Reference: publication PMC5122590, “Identification of a Dolabellane Type Diterpene Synthase and other Root-Expressed Diterpene Synthases in Arabidopsis” (Frontiers in Plant Science, 2016)

Tests used:
[1] = biological target: T1, TPS26 (Arabidopsis thaliana, UniProt Q9C8E3); assay: E. coli coexpression with (E,E)-FPP synthase, GC-MS; type: cell-based; conditions: trace alpha-humulene and (E)-beta-farnesene formed
T1 construct: N-terminal 38 aa removed; pET28a; RIKEN cDNA clone; expressed in E. coli with prenyl diphosphate synthase
T1 sequence (Q9C8E3 39-598): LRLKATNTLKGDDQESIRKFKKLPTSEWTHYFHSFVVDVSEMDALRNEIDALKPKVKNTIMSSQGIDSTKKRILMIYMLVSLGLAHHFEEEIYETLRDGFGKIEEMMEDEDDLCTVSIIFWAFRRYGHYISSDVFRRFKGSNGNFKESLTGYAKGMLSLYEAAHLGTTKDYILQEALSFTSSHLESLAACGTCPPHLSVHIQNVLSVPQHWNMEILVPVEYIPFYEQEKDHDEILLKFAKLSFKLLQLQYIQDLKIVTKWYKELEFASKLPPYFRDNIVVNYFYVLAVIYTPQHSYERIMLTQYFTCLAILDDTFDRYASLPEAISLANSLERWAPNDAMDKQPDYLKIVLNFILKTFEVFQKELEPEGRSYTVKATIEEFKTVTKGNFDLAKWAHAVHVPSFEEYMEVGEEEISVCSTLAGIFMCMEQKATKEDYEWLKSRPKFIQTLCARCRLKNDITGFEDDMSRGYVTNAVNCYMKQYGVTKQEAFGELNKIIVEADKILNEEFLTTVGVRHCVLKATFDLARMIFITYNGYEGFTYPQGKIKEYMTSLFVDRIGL

[2] = biological target: T2, TPS9 (Arabidopsis thaliana, UniProt Q8L7G4); assay: as above; type: cell-based; conditions: trace nerolidol and (E)-beta-farnesene formed
T2 construct: gene TPS09; pET Duet; no truncation stated; RIKEN full-length cDNA clone; expressed in E. coli with prenyl diphosphate synthase
T2 sequence (Q8L7G4 1-607): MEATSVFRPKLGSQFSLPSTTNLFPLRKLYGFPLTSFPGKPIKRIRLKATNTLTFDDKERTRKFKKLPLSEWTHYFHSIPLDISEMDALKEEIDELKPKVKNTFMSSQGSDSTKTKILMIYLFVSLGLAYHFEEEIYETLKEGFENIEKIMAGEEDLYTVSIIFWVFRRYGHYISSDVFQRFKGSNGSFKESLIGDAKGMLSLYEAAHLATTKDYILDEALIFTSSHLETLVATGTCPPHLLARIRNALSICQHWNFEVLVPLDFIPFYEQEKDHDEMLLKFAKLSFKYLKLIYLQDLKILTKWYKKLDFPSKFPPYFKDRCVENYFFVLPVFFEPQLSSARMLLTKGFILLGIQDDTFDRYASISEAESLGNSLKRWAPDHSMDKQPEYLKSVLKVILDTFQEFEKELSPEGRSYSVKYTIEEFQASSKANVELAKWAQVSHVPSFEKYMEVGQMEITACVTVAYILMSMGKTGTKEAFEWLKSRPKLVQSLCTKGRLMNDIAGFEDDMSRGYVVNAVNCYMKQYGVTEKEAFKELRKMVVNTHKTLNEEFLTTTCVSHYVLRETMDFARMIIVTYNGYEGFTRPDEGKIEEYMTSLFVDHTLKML

[3] = biological target: T3, TPS25 (Arabidopsis thaliana, UniProt Q9LIA1); assay: in vitro assay, SPME-GC-MS; type: biochemical; conditions: main product (E)-beta-farnesene
T3 construct: N-terminal 25 aa (transit peptide) removed; TOPO-pET102; E. coli; partially purified
T3 sequence (Q9LIA1 26-603): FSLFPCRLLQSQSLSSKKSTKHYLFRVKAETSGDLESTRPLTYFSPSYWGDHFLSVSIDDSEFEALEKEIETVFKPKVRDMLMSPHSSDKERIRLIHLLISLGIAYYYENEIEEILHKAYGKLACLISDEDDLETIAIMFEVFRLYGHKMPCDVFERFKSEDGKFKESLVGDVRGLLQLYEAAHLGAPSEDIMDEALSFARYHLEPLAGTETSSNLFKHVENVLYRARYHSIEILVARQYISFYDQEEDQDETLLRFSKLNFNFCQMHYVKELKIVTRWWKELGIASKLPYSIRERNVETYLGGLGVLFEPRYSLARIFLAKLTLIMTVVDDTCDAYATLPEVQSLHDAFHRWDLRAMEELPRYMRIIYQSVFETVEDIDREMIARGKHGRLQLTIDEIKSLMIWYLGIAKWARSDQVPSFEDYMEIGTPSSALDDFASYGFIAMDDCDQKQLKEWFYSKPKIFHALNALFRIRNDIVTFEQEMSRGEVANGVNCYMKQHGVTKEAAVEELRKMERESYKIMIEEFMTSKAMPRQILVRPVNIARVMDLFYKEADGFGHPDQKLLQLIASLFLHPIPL

[4] = biological target: T4, TPS22 (Arabidopsis thaliana, UniProt Q9LQ27); assay: in vitro assay, SPME-GC-MS; type: biochemical; conditions: main product (E)-beta-farnesene
T4 construct: N-terminal 41 aa (transit peptide) removed; TOPO-pET102; E. coli; partially purified
T4 sequence (Q9LQ27 42-603): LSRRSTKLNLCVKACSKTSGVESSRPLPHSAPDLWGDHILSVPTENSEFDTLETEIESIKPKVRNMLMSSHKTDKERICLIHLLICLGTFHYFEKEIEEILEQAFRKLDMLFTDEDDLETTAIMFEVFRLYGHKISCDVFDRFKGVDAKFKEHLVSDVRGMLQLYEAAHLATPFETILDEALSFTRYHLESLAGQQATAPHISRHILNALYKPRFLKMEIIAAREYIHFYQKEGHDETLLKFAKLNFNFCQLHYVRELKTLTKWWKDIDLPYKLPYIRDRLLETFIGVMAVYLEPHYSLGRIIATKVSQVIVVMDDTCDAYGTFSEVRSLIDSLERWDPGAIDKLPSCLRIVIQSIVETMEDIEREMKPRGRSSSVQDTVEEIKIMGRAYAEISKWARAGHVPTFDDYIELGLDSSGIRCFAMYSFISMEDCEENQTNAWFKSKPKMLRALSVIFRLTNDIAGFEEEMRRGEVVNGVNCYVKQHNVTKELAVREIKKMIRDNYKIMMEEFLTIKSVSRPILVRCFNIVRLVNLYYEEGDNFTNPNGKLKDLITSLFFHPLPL

[5] = biological target: T5, TPS6c (Arabidopsis thaliana, UniProt Q84UU9); assay: E. coli coexpression with GGPP synthase, GC-MS; type: cell-based; conditions: product (3E,7E)-dolabella-3,7-dien-18-ol and an unknown diterpene
T5 construct: gene TPS06; N-terminal 53 aa removed; pET28a; expressed in E. coli with GGPP synthase
T5 sequence (Q84UU9 54-611): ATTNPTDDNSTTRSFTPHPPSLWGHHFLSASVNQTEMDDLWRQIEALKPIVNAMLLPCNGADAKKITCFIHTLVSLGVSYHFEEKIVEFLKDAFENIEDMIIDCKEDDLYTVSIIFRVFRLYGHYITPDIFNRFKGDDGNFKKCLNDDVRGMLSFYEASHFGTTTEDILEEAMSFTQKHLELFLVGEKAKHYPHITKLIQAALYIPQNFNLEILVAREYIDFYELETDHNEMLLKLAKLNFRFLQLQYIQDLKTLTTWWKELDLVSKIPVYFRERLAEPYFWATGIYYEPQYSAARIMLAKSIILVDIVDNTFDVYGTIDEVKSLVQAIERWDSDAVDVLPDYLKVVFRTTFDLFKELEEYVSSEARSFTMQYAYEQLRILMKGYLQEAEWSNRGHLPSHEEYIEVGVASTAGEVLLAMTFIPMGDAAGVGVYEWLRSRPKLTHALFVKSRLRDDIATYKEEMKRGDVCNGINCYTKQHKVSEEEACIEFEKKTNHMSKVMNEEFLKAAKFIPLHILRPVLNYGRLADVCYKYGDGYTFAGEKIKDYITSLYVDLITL

[6] = biological target: T6, TPS30 (Arabidopsis thaliana, UniProt Q9LH31); assay: E. coli coexpression with GGPP synthase, GC-MS; type: cell-based; conditions: two unknown diterpenes formed
T6 construct: N-terminal 48 aa removed; pET28a; expressed in E. coli with prenyl diphosphate synthase
T6 sequence (Q9LH31 49-604): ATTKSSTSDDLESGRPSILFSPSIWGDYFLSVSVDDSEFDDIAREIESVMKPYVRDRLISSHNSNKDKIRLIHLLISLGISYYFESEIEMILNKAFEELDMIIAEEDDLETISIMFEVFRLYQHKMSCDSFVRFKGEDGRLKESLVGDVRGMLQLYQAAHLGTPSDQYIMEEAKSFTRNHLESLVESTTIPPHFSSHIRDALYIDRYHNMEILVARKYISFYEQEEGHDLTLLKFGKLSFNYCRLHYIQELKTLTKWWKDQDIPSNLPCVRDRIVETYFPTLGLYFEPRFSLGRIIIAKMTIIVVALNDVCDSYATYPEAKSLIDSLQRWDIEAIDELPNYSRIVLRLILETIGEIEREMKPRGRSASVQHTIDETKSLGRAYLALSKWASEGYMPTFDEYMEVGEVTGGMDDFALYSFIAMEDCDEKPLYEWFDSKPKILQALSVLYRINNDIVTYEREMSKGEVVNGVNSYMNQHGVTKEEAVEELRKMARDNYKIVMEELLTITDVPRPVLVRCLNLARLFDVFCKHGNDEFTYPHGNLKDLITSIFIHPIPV

[7] = biological target: T7, TPS20c (Arabidopsis thaliana, UniProt Q9FI27); assay: radiochemical terpene synthase assay; type: biochemical; conditions: labelled compound ([1-3H]-GGPP); six concentrations, triplicate
T7 construct: gene TPS20; first 53 aa (plastid transit peptide) removed; N-terminal His-tag (pET28a NdeI/XhoI); E. coli; partially purified
T7 sequence (Q9FI27 54-575): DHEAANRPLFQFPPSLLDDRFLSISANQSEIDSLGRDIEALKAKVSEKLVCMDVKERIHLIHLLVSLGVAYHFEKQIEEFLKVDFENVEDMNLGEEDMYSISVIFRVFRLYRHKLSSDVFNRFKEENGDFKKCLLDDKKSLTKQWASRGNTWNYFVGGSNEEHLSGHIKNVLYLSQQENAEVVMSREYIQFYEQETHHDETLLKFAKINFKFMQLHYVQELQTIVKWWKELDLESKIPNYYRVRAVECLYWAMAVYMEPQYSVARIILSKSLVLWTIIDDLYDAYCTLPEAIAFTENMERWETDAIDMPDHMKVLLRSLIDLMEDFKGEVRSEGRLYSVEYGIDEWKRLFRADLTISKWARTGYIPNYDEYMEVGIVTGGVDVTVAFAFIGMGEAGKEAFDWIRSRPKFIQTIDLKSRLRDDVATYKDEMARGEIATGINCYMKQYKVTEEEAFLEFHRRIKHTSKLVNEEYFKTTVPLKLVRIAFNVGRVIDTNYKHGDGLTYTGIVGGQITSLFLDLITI
Description: radiochemical terpene synthase assay on TPS20c

[8] = biological target: T2, TPS9; assay: E. coli coexpression with GGPP synthase, GC-MS; type: cell-based; conditions: unidentified diterpene olefins formed

| Km [7] | SMILES | E. coli coexpression with (E,E)-FPP synthase, GC-MS [1] | E. coli coexpression with (E,E)-FPP synthase, GC-MS [2] | in vitro assay, SPME-GC-MS [3] | in vitro assay, SPME-GC-MS [4] | E. coli coexpression with GGPP synthase, GC-MS [5] | E. coli coexpression with GGPP synthase, GC-MS [6] | E. coli coexpression with GGPP synthase, GC-MS [8] |
| --- | --- | --- | --- | --- | --- | --- | --- | --- |
|  | CC(C)=CCC/C(C)=C/CC/C(C)=C/COP(=O)(O)OP(=O)(O)O [(E,E)-FPP] | trace amounts of α-humulene and (E)-β-farnesene being produced by TPS26 | When co-expressed with (E,E)-FPP synthase, TPS9 produced trace amounts of nerolidol and (E)-β-farnesene | both proteins converted (E,E)-FPP into sesquiterpenes in vitro with (E)-β-farnesene as the main compound | both proteins converted (E,E)-FPP into sesquiterpenes in vitro with (E)-β-farnesene as the main compound |  |  |  |
| 6.29 ± 0.24 µM | CC(C)=CCC/C(C)=C/CC/C(C)=C/CC/C(C)=C/COP(=O)(O)OP(=O)(O)O [GGPP] |  |  |  |  | TPS6c reacts with GGPP to produce dolabelladienol and an unknown diterpene | protein encoded by gene TPS30 reacted with GGPP to form two unknown diterpenes | TPS9 converted GGPP to one predominant diterpene olefin and eight minor diterpene products |
